“Also recorded” adds a separate entry of the source. One block for each compound: values may come before it.
Assays:
TX mice = assay: Tissue and fecal copper levels (ICP-MS, rhodanine staining); type: in vivo, mouse
Method: C3He-Atp7b^tx-j were obtained from the Jackson laboratory. All animal experiments were performed according to protocols approved by the Institutional Animal Use and Care Committee of Cold Spring Harbor laboratory. Mice were injected intraperitoneally (i.p.) with vehicle, or administered DPM-1001 intraperitoneally or orally at 5 mg/kg once every third day, for over a year. At the end of the study animals were euthanized and tissue samples were removed for biochemical studies.
Tissue samples from wild-type or TX mice treated with saline, DPM-1001 or tetrathiomolybdate was washed three times with PBS containing 1 mM EDTA (to remove nonspecifically bound copper). Then, 215 μl of concentrated nitric acid (BDH Aristar Ultra) was added to each sample and incubated overnight. Samples were boiled at 95° C. for 1 h. and approximately 150 μl of each sample was further diluted in 2 ml 2% nitric acid (made freshly from concentrated nitric acid and Milli-Q water) Samples were analyzed on a Thermo Fisher iCAP Qc ICP mass spectrometer in kinetic energy discrimination (KED) mode against a calibration curve of known copper and phosphorus concentrations, with Ga (20 μg/l, Inorganic Ventures) as an internal standard, Each experiment was carried out twice and each condition was repeated in at least triplicate.
Liver tissues from wild-type and TX mice from untreated and DPM-1001-treated mice were sectioned and stained with H&E or rhodanine. Whole-slide, digitized images of H&E-stained tissue were captured using the Aperio ScanScope XT automated scanning system (Vista, CA). Image J software was used to quantitate rhodanine staining.

[1] = ESI-MS analysis of complex formation with copper salts; type: binding; conditions: for Percentage (binding percentage): DPM-1013:Cu = 1:8
Method: Eight equivalents of M(NO3)2·xH2O or MSO4·xH2O (M=Cu, Zn) were reacted with 1 eq. of DPM-1001 (1 mM in H2O). The reaction solutions were stirred at RT, 40° C. and 80° C. for 2 h. Mass spectra were recorded on a Bruker Esquire 6000 HCT quadrupole ion trap instrument (Bruker Daltonik GmbH, Leipzig, Germany), equipped with an electrospray ionization (ESI) source. Generation of the molecular formula of the DPM-1001/Cu(II) species and the comparison between the theoretical (simulated) and the measured isotopic patterns was performed using the DataAnalysis 4.0 software (Bruker).
(§1) Eight equivalents of M(NO3)2·xH2O or MSO4·xH2O were reacted with 1 eq. of DPM-1001, DPM-1003 or analog 2 (1 mM in H2O). The reaction solutions were stirred at RT, 40° C. and 80° C. for 2 h. Each sample was diluted 5-fold in 50% methanol, 0.1% formic acid and loaded into a 500 μL syringe. A Thermo Vantage triple quadrupole mass spectrometer (Thermo Scientific), equipped with an HESI spray source was coupled to an Accela HPLC system (Thermo Scientific). Mobile phase A consisted of 0.1% formic acid and mobile phase B consisted of 0.1% formic acid in methanol. Isocratic flow was set to 50% B at 200 μL/min. 200 μl samples were injected into the LC flow line via syringe pump at 10 μL/min and electrosprayed into the Vantage triple quadrupole mass spectrometer. A spray voltage of 4.3 kV was used along with a capillary temperature of 350° C. Each full MS scan was 0.5 s and data were collected with a scan range of 200 m/z to 900 m/z over 1 min.
Binding of compounds of Formula I other than DPM-1001 was also confirmed. In an ESI-MS test, compound DPM-1013 as hydrochloride salt was dissolved in distilled water at a concentration of 2 mM freshly before testing. It was then mixed with an equal volume copper sulfate (16 mM) or copper chloride solution (16 mM) for 2 h, rendering a concentration of DPM-1013 at 1 mM and the copper salt 8 mM. The mixture was then further diluted 100-fold before injection into an ESI-MS, making a final concentration of DPM-1013 of 10 μM and Cu 80 μM in the test.
Binding percentage=peak intensity of all DPM-1013-Cu complex/(peak intensity of all DPM-1013-Cu complex+peak intensity of free DPM-1013).

PTP1B1-321 = target: T1, PTP1B1-321 (Homo sapiens, UniProt P18031); assay: PTP1B phosphatase activity assay, short form; type: biochemical; conditions: enzyme-inhibitor complex diluted, activity recovery monitored
T1 construct: C-terminally truncated PTP1B (1-321); made in house; host or cells: Escherichia coli BL21 (DE3)-RIL
T1 sequence (P18031 1-321): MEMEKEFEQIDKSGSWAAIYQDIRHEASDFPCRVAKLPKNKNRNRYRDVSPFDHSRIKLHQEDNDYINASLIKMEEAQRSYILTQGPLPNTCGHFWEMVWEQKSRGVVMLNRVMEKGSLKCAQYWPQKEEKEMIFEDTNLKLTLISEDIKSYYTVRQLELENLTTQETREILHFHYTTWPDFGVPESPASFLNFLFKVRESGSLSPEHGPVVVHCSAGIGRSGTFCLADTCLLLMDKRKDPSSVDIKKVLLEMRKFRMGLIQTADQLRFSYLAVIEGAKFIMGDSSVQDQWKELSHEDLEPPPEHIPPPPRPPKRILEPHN
Method: (§2) All common reagents were obtained from Thermo Fisher Scientific (Waltham, MA) or Sigma-Aldrich (St. Louis, MO). Difluoro-4-methylumbelliferyl phosphate (DiFMUP) was obtained from Invitrogen (cat #D22065). Solid black 384-well plates (cat #3573) for phosphatase assays were from Corning Incorporated (Corning, NY).
(§3) Wild-type PTP1B containing a His-tag was expressed in Escherichia coli BL21 (DE3)-RIL using LB. Cells were resuspended in lysis buffer (50 mM Hepes pH 7.2, 150 mM NaCl, 10 mM imidazole, 2 mM TCEP) with cOmplete EDTA-free Protease Inhibitor Cocktail (Roche), and then lysed using a sonicator at 4° C. Lysates were clarified by centrifugation. Initial protein purification was by gravity flow, nickel column chromatography. Protein was used immediately or stored at −80° C. in 50 mM HEPES pH 7.4, 100 mM NaCl, 2 mM dithiothreitol and 25% glycerol.

PTP1B-L192A/S372P = PTP1B-L192A/S372P (Homo sapiens, UniProt P18031, L192A/S372P); assay: Phosphatase assay with MSI-1436-resistant mutant; type: biochemical
From the text: as §2

PTP1B1-405 = target: T2, PTP1B1-405 (Homo sapiens, UniProt P18031); assay: PTP1B phosphatase activity assay, DiFMUP substrate, long form; type: biochemical
T2 construct: PTP1B1-405 (the long form of PTP1B which contains the extended C-terminal segment); made in house; host or cells: Escherichia coli BL21 (DE3)-RIL
T2 sequence (P18031 1-405): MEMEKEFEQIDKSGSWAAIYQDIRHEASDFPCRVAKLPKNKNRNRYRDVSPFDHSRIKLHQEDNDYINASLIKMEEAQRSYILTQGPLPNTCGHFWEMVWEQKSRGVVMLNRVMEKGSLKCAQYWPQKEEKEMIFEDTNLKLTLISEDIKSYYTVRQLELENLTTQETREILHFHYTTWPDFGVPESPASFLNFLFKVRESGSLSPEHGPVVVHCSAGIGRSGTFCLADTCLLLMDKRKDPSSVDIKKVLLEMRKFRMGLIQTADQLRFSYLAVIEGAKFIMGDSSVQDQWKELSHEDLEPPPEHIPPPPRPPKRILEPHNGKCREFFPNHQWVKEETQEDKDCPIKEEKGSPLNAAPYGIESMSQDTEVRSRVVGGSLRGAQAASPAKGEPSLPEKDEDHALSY
Method: as §2, §3

[2] = ESI-MS analysis of complex formation with a series of other metal ions; type: binding; conditions: panel of metals
Method: as §1

MCF-7 = assay: Cell survival; type: cell-based
Method: (§4) The MTT assay was used to evaluate cell survival in the absence and presence of different compounds. The thiazolyl blue tetrazolium bromide (MTT) was dissolved in phosphate buffered saline (PBS) at a concentration of 5 mg/ml, filtered, and stored at 4° C. About 10,000 cells were seeded into a 96-well plate and cultured in growth medium containing serum. After 24 hours, cells were treated with the indicated concentrations of DPM-1001 or DPM-1003 (0-100 uM) for 2 hrs. Following which 20 μl MTT was added into each well. An ELISA plate reader (Biotek, Winooski, Vermont, USA) was used to measure the optical density at 490 nm.

MDA-MB-468 cells = assay: Cell survival; type: cell-based
Method: as §4

SUM149 cells = assay: Cell survival; type: cell-based
Method: as §4

HCC70 cells = assay: Cell survival; type: cell-based
Method: as §4

SUM159 = assay: Cell survival; type: cell-based
Method: as §4

MDA-MB-231 cells = assay: Cell survival; type: cell-based
Method: as §4
MDA-MB-231 cells (1×10^5) were seeded in 6 cm plates in growth medium. The cells were untreated or treated with DPM-1001 (0.5, 1, 2 and 5 μM), DPM-1003 (0.5, 1, 2 and 5 μM) or TTM (25, 50, 100 μM) for 1 h. Following which, media was gently aspirated and cells were washed with PBS. To each plate 0.5 ml of crystal violet (0.5%) was added and incubated in dark for 10 minutes at room temperature. The staining solution was removed and plates were washed with PBS (three times). The cells stained with the dye were imaged.

AZD6244-sensitive cells = assay: Immunoblot of phospho-MEK and phospho-Erk; type: cell-based; conditions: 1-2 μM AZD6244
From the text: (§5) Equal quantities of lysates were isolated from indicated cell lines and then resolved by SDS-PAGE and immunoblotted with one of the following primary antibodies: mouse anti-MEK1/2, rabbit anti-p-PAK1, rabbit anti-PAK1, rabbit anti-ERK1/2, rabbit anti-phospho(Ser 217/221)-MEK1/2, rabbit anti-phospho(Thr 202/Tyr 204)-ERK1/2, rabbit anti-phospho (Ser 338)-c-RAF, rabbit anti-RAF, rabbit anti-phospho (Ser 112)-BAD and rabbit anti-BAD (Cell Signaling Technology), mouse anti-β-actin (Sigma), followed by detection with one of the following horseradish peroxidase-conjugated secondary antibodies: goat anti-rabbit IgG, goat anti-mouse IgG (Invitrogen), mouse anti-rabbit light-chain-specific IgG (Jackson ImmunoResearch Laboratories) using enhanced chemiluminescence (ECL; GE Healthcare) or SuperSignal West Femto Chemiluminescent substrate (Pierce) detection reagents.

[3] = test system: AZD6244-insensitive cells; assay: Immunoblot of phospho-MEK and phospho-Erk; type: cell-based; conditions: AZD6244-insensitive (resistant) cells
From the text: as §5

Chain of PTP1B-L192A/S372P (P18031 whole entry L192A/S372P): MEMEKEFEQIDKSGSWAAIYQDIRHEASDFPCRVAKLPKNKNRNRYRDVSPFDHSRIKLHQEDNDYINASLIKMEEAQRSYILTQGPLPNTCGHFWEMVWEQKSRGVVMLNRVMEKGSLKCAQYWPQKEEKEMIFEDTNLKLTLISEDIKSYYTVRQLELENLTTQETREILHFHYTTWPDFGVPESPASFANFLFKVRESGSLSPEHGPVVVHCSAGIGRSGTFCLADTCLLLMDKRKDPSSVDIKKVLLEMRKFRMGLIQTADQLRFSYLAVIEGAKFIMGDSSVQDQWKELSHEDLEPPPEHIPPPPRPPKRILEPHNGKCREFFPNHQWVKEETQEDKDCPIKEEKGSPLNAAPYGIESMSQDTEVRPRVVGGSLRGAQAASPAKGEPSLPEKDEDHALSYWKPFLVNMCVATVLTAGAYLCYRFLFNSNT

SMILES: [SH-].[SH-].[S]=[Mo]=[S] [tetrathiomolybdate, reference compound]
copper levels in feces (TX mice; TX mice): only a small increase
copper levels in liver and brain (TX mice; TX mice, ICP-MS): prevented accumulation of copper in liver and brain
copper levels in kidney (TX mice; wild-type and TX mice, ICP-MS): caused accumulation of copper in the kidney; also recorded: dramatically elevated copper levels in the kidney

reversibility of inhibition of PTP1B1-321 (PTP1B1-321): reversible inhibitor
sensitivity of PTP1B-L192A/S372P to inhibitor (PTP1B-L192A/S372P): insensitive
reversibility of inhibition of PTP1B1-405 (PTP1B1-405; enzyme-inhibitor complex diluted, activity recovery monitored): reversible inhibitor
time until PTP1B activity recovers (PTP1B1-405; sample diluted 100-fold): ≤ 60 min
SMILES: CC(C)[C@@H](CC[C@@H](C)[C@H]1CC[C@H]2[C@@H]3[C@H](O)C[C@H]4C[C@@H](NCCCNCCCCNCCCN)CC[C@]4(C)[C@H]3CC[C@]12C)OS(=O)(=O)O [MSI-1436, 3-N-1(spermine)-7,24-dihydroxy-5-cholestane 24-sulfate, reference compound]
complex formation with copper [1]: does not form a complex with copper

SMILES: c1ccc(CNCCCCNCc2ccccn2)nc1 [Analog 2, N^1,N^4-bis(pyridin-2-ylmethyl)butane-1,4-diamine]
complex formation with copper [1]: Cu(II)-bound form
complex formation with other metals [2]: bound to all the metals tested

SMILES: Cn1cnc2c(F)c(Nc3ccc(Br)cc3Cl)c(C(=O)NOCCO)cc21 [AZD6244, 6-(4-bromo-2-chloroanilino)-7-fluoro-N-(2-hydroxyethoxy)-3-methylbenzimidazole-5-carboxamide]
survival of MCF-7 cells (MCF-7): inhibited cell survival
survival of MDA-MB-468 cells (MDA-MB-468 cells): without effect on survival
survival of SUM149 cells (SUM149 cells): without effect on survival
survival of HCC70 cells (HCC70 cells): without effect on survival
survival of SUM159 cells (SUM159): inhibited cell survival
survival of MDA-MB-231 cells (MDA-MB-231 cells): inhibited cell survival
phospho-MEK and phospho-Erk (AZD6244-sensitive cells): reduced phospho-MEK and phospho-Erk
phospho-MEK and phospho-Erk [3]: without effect

Percentage (binding percentage) ([1]; CuCl2): 74.29%
Percentage (binding percentage) ([1]; CuSO4): 82.23%
SMILES: COC(=O)CC[C@@H](C)[C@H]1CC[C@H]2[C@@H]3[C@H](O)C[C@@H]4C[C@@H](NCCCCNCc5ccccn5)CC[C@]4(C)[C@H]3CC[C@]12C [DPM-1013]
complex formation with copper [1]: formed complexes with free Cu, CuSO4; also recorded: formed complexes with free Cu, CuCl2

Reference: patent US12178825B2, “Method and compositions for forming a copper-containing complex and uses thereof” (COLD SPRING HARBOR LABORATORY, priority 2017, dated 2024)
